Source: patent US20110218188A1, “SUBSTITUTED (PYRIDYL)-AZINYLAMINE DERIVATIVES AS FUNGICIDES” (priority 2008, published 2011)

Assay: Measurement of logP values by HPLC on reversed phase columns (EEC directive 79/831 Annex V.A8)
Type: physicochemical
Conditions: pH 2.7

SMILES	logP	chromatographic logP
CN(CC1CC1)C(=O)c1cc(-c2ncnc(Nc3ccc(F)c(Cl)c3)n2)ccn1 [Example B204]	3.23	–
O=C(c1cc(-c2ncnc(Nc3cccc(Cl)c3)n2)ccn1)N1CCC(O)C1 (stereo not shown) [B177]	2.07	–
CCCN(C)C(=O)c1cc(-c2ncnc(Nc3ccc(Cl)c(C(F)F)c3)n2)ccn1 [Example B387]	3.23	–
CCC(CC)NC(=O)c1cc(-c2ncnc(Nc3cccc(Cl)c3)n2)ccn1 [B63]	4.22	–
CN(CC(F)F)C(=O)c1cc(-c2ncnc(Nc3cccc(OC(F)F)c3)n2)ccn1 [Example B370]	2.86	–
CCC(=NO)c1cc(-c2ncnc(Nc3cccc(Cl)c3)n2)ccn1 (mixture of isomers) [Example B64]	3.24	–
O=C(c1cc(-c2ncnc(Nc3cccc(Cl)c3)n2)ccn1)N1CCOCC1 [Example B116]	2.39	–
CN(CCC#N)C(=O)c1cc(-c2ncnc(Nc3ccc(F)c(Cl)c3)n2)ccn1 [Example B201]	2.58	–
CC(C)C(C)NC(=O)c1cc(-c2ncnc(Nc3cccc(Cl)c3)n2)ccn1 (stereo not shown) [B62]	4.3	–
CCCC#CCON=C(CC)c1cc(-c2ncnc(Nc3cccc(Cl)c3)n2)ccn1 (mixture of isomers) [Example B46]	5.81	–
CC(C)CN(C)C(=O)c1cc(-c2ncnc(Nc3ccc(F)c(F)c3)n2)ccn1 [Example B380]	3.19	–
CCN(CC)C(=O)c1cc(-c2nc(Nc3ccsc3)ncc2C)ccn1 [Example A41, N,N-diethyl-4-[5-methyl-2-(3-thienylamino)pyrimidin-4-yl]pyridine-2-carboxamide]	–	2.61
CN(CCC#N)C(=O)c1cc(-c2ncnc(Nc3cccc(Cl)c3)n2)ccn1 [Example B129]	2.51	–
CC(C)N(C)C(=O)c1cc(-c2ncnc(Nc3ccsc3)n2)ccn1 [Example C20]	2.37	–
COCC(C1CC1)N(C)C(=O)c1cc(-c2ncnc(Nc3ccc(F)c(Cl)c3)n2)ccn1 (stereo not shown) [B210]	3.33	–
O=C(NCCN1CCOCC1)c1cc(-c2ncnc(Nc3cccc(Cl)c3)n2)ccn1 [Example B105]	1.68	–
CN(CC(F)F)C(=O)c1cc(-c2ncnc(Nc3cccc(Cl)c3)n2)ccn1 [Example B373]	3.06	–
CC(C)=CCN(C)C(=O)c1cc(-c2ccnc(Nc3ccnc(Cl)c3)n2)ccn1 [Example A30]	2.66	–
Cc1ccc(Nc2ncnc(-c3ccnc(C(=O)N(C)C(C)C)c3)n2)cc1Cl [Example B365]	3.33	–
CCN(CC)C(=O)c1cc(-c2ncnc(Nc3ccc(C)c(Cl)c3)n2)ccn1 [Example B349]	3.44	–
CCC(=NOC1CCCC1)c1cc(-c2ncnc(Nc3cccc(Cl)c3)n2)ccn1 (mixture of isomers) [B47]	6.39	–
CCCN(C)C(=O)c1cc(-c2ncnc(Nc3cccc(C#N)c3)n2)ccn1 [Example B293]	2.45	–
CCN(C)C(=S)c1cc(-c2ncnc(Nc3cccc(SC)c3)n2)ccn1 [Example B223]	3.17	–
CCN(CC)C(=O)c1cc(-c2ncnc(Nc3ccc(F)c(F)c3)n2)ccn1 [B351]	2.88	–
CC1CN(C(=O)c2cc(-c3ncnc(Nc4cccc(Cl)c4)n3)ccn2)CC(C)O1 (stereo not shown) [B154]	2.92	–
CC(C)N(C)C(=O)c1cc(-c2ncnc(Nc3cccc(C#N)c3)n2)ccn1 [Example B296]	2.37	–
CCN(C)C(=S)c1cc(-c2ncnc(Nc3cccc(C(C)C)c3)n2)ccn1 [Example B259]	3.7	–

SMILES	logP	chromatographic logP
CCN(CC)C(=O)c1cc(-c2ccnc(Nc3ccc(C(C)(C)C)s3)n2)ccn1 [Example A39, 4-{2-[(5-tert-butyl-2-thienyl)amino]pyrimidin-4-yl}-N,N-diethylpyridine-2-carboxamide]	–	3.62
CN(CC1CCCO1)C(=O)c1cc(Nc2nccc(-c3ccnc(C(=O)N(C)CC4CCCO4)c3)n2)ccn1 (stereo not shown) [Example A16]	1.35	–
CCCCN(CCCC)C(=O)c1cc(-c2ncnc(Nc3cccc(Cl)c3)n2)ccn1 [B175]	4.75	–
CN(C)C(=O)c1cc(-c2ncnc(Nc3cccc(C(F)(F)F)c3)n2)ccn1 [Example B355]	2.58	–
CON(C)C(=O)c1cc(-c2ncnc(Nc3ccsc3)n2)ccn1 [Example C30, N-methoxy-N-methyl-4-[4-(3-thienylamino)-1,3,5-triazin-2-yl]pyridine-2-carboxamide]	–	2.05
Cc1ccc(Nc2ncnc(-c3ccnc(C(=O)N(C)CC4CC4)c3)n2)cc1Cl [Example B367]	3.53	–
Cc1ccc(Nc2ncnc(-c3ccnc(C(=O)N(C)CC(C)C)c3)n2)cc1Cl [Example B368]	3.78	–
CCC(=NOCc1c(Cl)cccc1Cl)c1cc(-c2ncnc(Nc3cccc(Cl)c3)n2)ccn1 (mixture of isomers) [B69]	6.53	–
CCN(CC)CC(C)NC(=O)c1cc(-c2ncnc(Nc3cccc(Cl)c3)n2)ccn1 (stereo not shown) [Example B114]	1.9	–
CCN(C)C(=O)c1cc(-c2ccnc(Nc3ccnc(C(F)(F)F)c3)n2)ccn1 [Example A18]	2.22	–
CCN(CC)C(=O)c1cc(-c2ncnc(Nc3ccc(F)c(Cl)c3)n2)ccn1 [Example B202]	3.13	–
CN(C)C(=O)c1cc(-c2ncnc(Nc3ccc(F)cc3)n2)ccn1 [Example B18]	2.02	–
CCN(C)C(=O)c1cc(-c2ncnc(Nc3cccc(C(F)(F)F)c3)n2)ccn1 [Example B256]	2.86	–
CC(=O)Nc1cccc(Nc2ncnc(-c3ccnc(C(=O)N(C)CC(C)C)c3)n2)c1 [Example B308]	2.1	–
COC(=O)c1cc(-c2ncnc(Nc3cccc(Cl)c3)n2)ccn1 [Example B25]	2.79	–
CN(CCC#N)C(=S)c1cc(-c2ncnc(Nc3ccc(F)c(C(F)F)c3)n2)ccn1 [Example B340]	2.82	–
CN(C)C(=O)c1cc(-c2ncnc(Nc3ccc(Cl)c(C(F)F)c3)n2)ccn1 [Example B385]	2.59	–
CN(CC(F)F)C(=O)c1cc(-c2ncnc(Nc3cccc(C#N)c3)n2)ccn1 [Example B369]	2.45	–
CC(C)N(C)C(=O)c1cc(-c2ccnc(Nc3ccnc(Cl)c3)n2)ccn1 [Example A28]	2.13	–
CCCCCNC(=O)c1cc(-c2ncnc(Nc3cccc(Cl)c3)n2)ccn1 [B67]	4.35	–
CCC(=NOCC(F)(F)F)c1cc(-c2ncnc(Nc3cccc(Cl)c3)n2)ccn1 (mixture of isomers) [B58]	5.39	–
CN(C)C(=O)c1cc(-c2ncnc(Nc3cccc(C(F)F)c3)n2)ccn1 [Example B288]	2.17	–
CCN(C)C(=O)c1cc(-c2ncnc(Nc3cccc(Cl)c3)n2)ccn1 [Example B157]	2.69	–
CCCN(C)C(=S)c1cc(-c2ncnc(Nc3cccc(COC)c3)n2)ccn1 [Example B250]	3.05	–
CCCN(C)C(=O)c1cc(-c2ncnc(Nc3ccc(F)cc3)n2)ccn1 [Example B16]	2.62	–
CC(C)CC(=O)O/N=C(/N)c1cc(-c2ncnc(Nc3cccc(Cl)c3)n2)ccn1 [Example B110]	4.12	–
CCCN(C)C(=S)c1cc(-c2ncnc(Nc3cccc(OC)c3)n2)ccn1 [Example B283]	3.15	–

SMILES	logP	chromatographic logP
CC(C)(C)NC(=O)c1cc(-c2ncnc(Nc3cccc(Cl)c3)n2)ccn1 [B98]	4.39	–
CCN(C)C(=S)c1cc(-c2ncnc(Nc3ccc(F)c(C(F)F)c3)n2)ccn1 [Example B333]	3.04	–
CC(C)N(C)C(=O)c1cc(-c2ncnc(Nc3ccc(Cl)c(C(F)F)c3)n2)ccn1 [Example B391]	3.15	–
CCN(C)C(=O)c1cc(-c2ccnc(Nc3ccnc(Cl)c3)n2)ccn1 [Example A17, 4-{2-[(2-chloropyridin-4-yl)amino]pyrimidin-4-yl}-N-ethyl-N-methylpyridine-2-carboxamide]	–	1.91
CCCCNC(=O)c1cc(-c2ncnc(Nc3cccc(Cl)c3)n2)ccn1 [Example B93]	4.11	–
COC[C@H](C)NC(=O)c1cc(-c2ncnc(Nc3cccc(Cl)c3)n2)ccn1 [B52]	3.39	–
CC(C)CN(C)C(=O)c1cc(-c2ncnc(Nc3ccc(F)cc3)n2)ccn1 [Example B19]	2.92	–
NC(=S)c1cc(-c2ncnc(Nc3ccc(F)cc3)n2)ccn1 [B322]	2.47	–
CN(C)C(=O)c1cc(-c2ncnc(Nc3ccc(F)c(F)c3)n2)ccn1 [Example B377]	2.25	–
CC1CCN(C(=O)c2cc(-c3ncnc(Nc4cccc(Cl)c4)n3)ccn2)CC1 [Example B131]	3.51	–
CN(C)C(=O)c1cc(-c2ncnc(Nc3cccc(OC(F)(F)F)c3)n2)ccn1 [Example B266]	2.7	–
CC(C)CN(C)C(=O)c1cc(-c2ncnc(Nc3cccc(C(F)(F)F)c3)n2)ccn1 [Example B362]	3.58	–
CC1CCCN(C(=O)c2cc(-c3ncnc(Nc4cccc(Cl)c4)n3)ccn2)C1 (stereo not shown) [Example B135]	3.48	–
Cc1ccc(Nc2nccc(-c3ccnc(C(=O)N(C)C)c3)n2)s1 [Example A48]	2.13	–
C#CCN(CC)C(=O)c1cc(-c2ncnc(Nc3cccc(C(F)F)c3)n2)ccn1 [B420]	2.86	–
COC1CCN(C(=O)c2cc(-c3ncnc(Nc4cccc(Cl)c4)n3)ccn2)CC1 [Example B169]	2.68	–
CCN(CC)C(=O)c1cc(-c2ncnc(Nc3ccsc3)n2)ccn1 [Example C13]	2.44	–
CSc1cccc(Nc2ncnc(-c3ccnc(C(=O)NCCCN4CCCCCC4=O)c3)n2)c1 [B215]	3.02	–
CC(=O)c1cc(-c2ncnc(Nc3cccc(Cl)c3)n2)ccn1 [Example B26, 1-(4-{4-[(3-chlorophenyl)amino]-1,3,5-triazin-2-yl}pyridin-2-yl)ethanone]	–	3.32
CCCNC(=O)c1cc(-c2ncnc(Nc3cccc(F)c3)n2)ccn1 [B323]	3.17	–
CN(CCC#N)C(=S)c1cc(-c2ncnc(Nc3cccc(Cl)c3)n2)ccn1 [Example B343]	3.02	–
CCC(=NOCC(C)C)c1cc(-c2ncnc(Nc3cccc(Cl)c3)n2)ccn1 (mixture of isomers) [B65]	6.19	–
CCCN(C)C(=O)c1cc(-c2ncnc(Nc3ccccc3)n2)ccn1 [Example B312]	2.55	–
COCCN(C)C(=O)c1cc(-c2ncnc(Nc3cccc(C(F)(F)F)c3)n2)ccn1 [Example B361]	2.75	–
O=C(NC1CCCC1)c1cc(-c2ncnc(Nc3cccc(Cl)c3)n2)ccn1 [B71]	4.03	–
